{"source": "patent US20110165578A1", "about": "“METHODS FOR DETECTING AND QUANTIFYING OVERSULFATED GLYCOSAMINOGLYCANS” (priority 2008, published 2011)", "key": {"Taq polymerase": {"molecular_target": "T1, Taq polymerase (Thermus aquaticus, UniProt P19821)", "T1 construct": "purchased ABI (Applied Biosystems)", "T1 sequence (P19821 whole entry)": "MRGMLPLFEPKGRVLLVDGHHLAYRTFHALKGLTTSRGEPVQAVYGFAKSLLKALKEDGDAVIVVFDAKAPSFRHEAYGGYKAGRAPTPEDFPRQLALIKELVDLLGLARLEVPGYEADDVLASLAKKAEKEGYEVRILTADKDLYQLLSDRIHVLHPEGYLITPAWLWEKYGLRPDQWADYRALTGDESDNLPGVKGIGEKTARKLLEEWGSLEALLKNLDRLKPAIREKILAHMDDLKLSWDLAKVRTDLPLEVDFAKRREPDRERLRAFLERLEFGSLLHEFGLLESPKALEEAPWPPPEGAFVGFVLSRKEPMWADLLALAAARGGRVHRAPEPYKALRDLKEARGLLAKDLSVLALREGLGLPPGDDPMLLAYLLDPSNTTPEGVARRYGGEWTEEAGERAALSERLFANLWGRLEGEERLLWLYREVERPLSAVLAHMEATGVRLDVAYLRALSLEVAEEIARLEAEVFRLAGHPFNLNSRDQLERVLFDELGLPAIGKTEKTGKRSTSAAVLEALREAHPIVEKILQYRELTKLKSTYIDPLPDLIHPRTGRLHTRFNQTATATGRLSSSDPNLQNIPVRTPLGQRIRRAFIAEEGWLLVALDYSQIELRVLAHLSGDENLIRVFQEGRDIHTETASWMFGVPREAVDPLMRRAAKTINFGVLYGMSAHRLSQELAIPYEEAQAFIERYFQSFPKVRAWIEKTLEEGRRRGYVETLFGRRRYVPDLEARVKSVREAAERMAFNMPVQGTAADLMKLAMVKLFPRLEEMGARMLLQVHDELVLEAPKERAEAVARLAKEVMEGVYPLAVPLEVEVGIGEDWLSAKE", "test": "Taq polymerase inhibition by Taqman real time PCR (gene amplification, CT values)", "assay_type": "biochemical", "conditions": "for gene amplification (polymerase activity) after treatment with heparinase: heparinase 2 hours at room temperature, OS-CS 30 ng, heparin 25 mU of lot C1 (FIG. 2B); for 18S amplification / Taq polymerase activity: spiked into heparin and treated with heparinase; for 18S amplification: same conditions", "description": "Heparinase treatment: Heparin was treated with heparinase I (1:1 unit:unit reaction unless otherwise noted) for 2 hours at 25° C. in a buffer containing 4 mM Tris-HCl pH 7.5, 0.8 mM CaCl, 10 mM NaCl, and 20 U of RNase inhibitor (ABI). After treatment, the heparin was diluted to a final volume of 50 μl and serial dilutions were prepared in DEPC water as specified. Where indicated, other GAGs and oversulfated GAGs (dermatan sulfate, chondroitin sulfate, and heparan sulfate) were treated with heparinase under the same conditions as described above.\nScreening Assay: cDNA was generated using total RNA from MDA-MB-231 human breast cancer cell line extracted using Trizol reagent (Invitrogen, Carlsbad, Calif.) as per manufacturer's instructions. For each cDNA reaction 1 μg total RNA was reverse transcribed using High Capacity cDNA Reverse Transcription Kit (Applied Biosystems, Foster City Calif.) in a volume of 20 μl and further diluted in DEPC water to 100 μl final volume. The concentration of cDNA was determined using Quant-iT OliGreen ssDNA Reagent (Invitrogen). For each Taqman® reaction, 25 ng of cDNA in a 2.5 μl volume were mixed with 2.5 μl of each dilution of heparinase-treated heparin or hypersulfated GAGs and then subjected to real time PCR using Taqman® Gene Expression assay for human 18S rRNA (20×) and 2× Universal PCR master mix (ABI) in a 25 μl reaction. Amplification levels of 18S are expressed as CT values. CT values represent the cycle at which amplification of a target gene is first detected. The amplification was analyzed using manual settings with a threshold value of 0.1 and the SDS2.3 software from ABI. […] Quantification of the oversulfated GAGs was performed by establishing a cutoff at the minimum concentration of synthetic OS-CS that completely blocks Taq polymerase (500 pg) and tittering all the samples until the activity of Taq polymerase was restored.\nReal time-PCR (Taqman® PCR) is a highly sensitive method for detecting changes in gene expression. Gene amplification depends on a thermostable DNA polymerase from Thermus aquaticus (Taq pol). […] Shown in FIG. 1 are the levels of 18S amplification from 25 ng cDNA derived from MDA-MB-231 cells as determined by Taqman® PCR. While the 18S rRNA is used here, any RNA or DNA template is suitable. Addition of progressively higher amounts of heparin induces a corresponding reduction in Taq polymerase activity that can be monitored by assessing 18S cDNA amplification. […] Treatment of heparin with 1 unit of heparinase for 2 hrs at 25° C. overcomes the blocking activity of up to 50 mU of heparin (FIG. 1A).\nTo compare the use of different template sequences to measure the inhibition of Taq polymerase activity by oversulfated GAGs, heparin preparations were processed and RNA was isolated as detailed in Example 1, except that cDNAs were generated and amplified from the Actin B and GAPDH RNA sequences, in addition to the 18S rRNA.\nTable 1 compares the effects of different oversulfated GAGs on the amplification of 18S, Actin B, and GAPDH sequences by Taq polymerase, as shown by mean cycle thresholds (CT) of amplification detection. The CT value indicating no inhibition of Taq polymerase activity varied slightly by template, but was maximally <20. […] Addition of progressively higher amounts of over sulfated chondroitin sulfate (OS-CS), oversulfated dermatan sulfate (OS-DS), and oversulfated heparan sulfate (OS-HS) to cDNA induced a corresponding reduction in Taq polymerase amplification of 18S, Actin B, and GAPDH."}, "porcine model": {"system": "porcine model", "conditions": "5 mg/kg i.v. in bolus; cited from earlier work"}, "[1]": {"conditions": "any concentration tested (0-125 ng)"}}}
{"substance": "heparin", "values": [{"measurement": "amount of heparin whose blocking activity is overcome by heparinase treatment", "setting": "Taq polymerase; 1 unit of heparinase, 2 hrs at 25° C., 18S (FIG. 1A)", "result": "up to 50 mU"}, {"measurement": "gene amplification (polymerase activity) after treatment with heparinase", "setting": "Taq polymerase", "result": "restores gene amplification"}]}
{"substance": "oversulfated heparan sulfate [OS-HS]", "values": [{"measurement": "mean cycle threshold (CT) of amplification detection", "setting": "Taq polymerase; 18S template, 0.3 ng", "result": 14.49}, {"measurement": "mean cycle threshold (CT) of amplification detection", "setting": "Taq polymerase; 18S template, 0.9 ng", "result": 26.00}, {"measurement": "mean cycle threshold (CT) of amplification detection", "setting": "Taq polymerase; 18S template, 2.7 ng", "result": 40.00}, {"measurement": "mean cycle threshold (CT) of amplification detection", "setting": "Taq polymerase; 18S template, 8.3 ng", "result": 40.00}, {"measurement": "mean cycle threshold (CT) of amplification detection", "setting": "Taq polymerase; 18S template, 25 ng", "result": 40.00}, {"measurement": "mean cycle threshold (CT) of amplification detection", "setting": "Taq polymerase; Actin B template, 0.3 ng", "result": 27.12}, {"measurement": "mean cycle threshold (CT) of amplification detection", "setting": "Taq polymerase; Actin B template, 0.9 ng", "result": 40.00}, {"measurement": "mean cycle threshold (CT) of amplification detection", "setting": "Taq polymerase; Actin B template, 2.7 ng", "result": 40.00}, {"measurement": "mean cycle threshold (CT) of amplification detection", "setting": "Taq polymerase; Actin B template, 8.3 ng", "result": 40.00}, {"measurement": "mean cycle threshold (CT) of amplification detection", "setting": "Taq polymerase; GAPDH template, 0.3 ng", "result": 25.98}, {"measurement": "mean cycle threshold (CT) of amplification detection", "setting": "Taq polymerase; GAPDH template, 0.9 ng", "result": 40.00}, {"measurement": "mean cycle threshold (CT) of amplification detection", "setting": "Taq polymerase; GAPDH template, 2.7 ng", "result": 40.00}, {"measurement": "mean cycle threshold (CT) of amplification detection", "setting": "Taq polymerase; GAPDH template, 8.3 ng", "result": 40.00}, {"measurement": "mean cycle threshold (CT) of amplification detection", "setting": "Taq polymerase; GAPDH template, 25 ng", "result": 40.00}, {"measurement": "18S amplification", "setting": "Taq polymerase", "result": "significantly reduced"}]}
{"substance": "oversulfated dermatan sulfate [OS-DS]", "values": [{"measurement": "mean cycle threshold (CT) of amplification detection", "setting": "Taq polymerase; 18S template, 0.3 ng", "result": 14.13}, {"measurement": "mean cycle threshold (CT) of amplification detection", "setting": "Taq polymerase; 18S template, 0.9 ng", "result": 18.29}, {"measurement": "mean cycle threshold (CT) of amplification detection", "setting": "Taq polymerase; 18S template, 2.7 ng", "result": 40.00}, {"measurement": "mean cycle threshold (CT) of amplification detection", "setting": "Taq polymerase; 18S template, 8.3 ng", "result": 40.00}, {"measurement": "mean cycle threshold (CT) of amplification detection", "setting": "Taq polymerase; 18S template, 25 ng", "result": 40.00}, {"measurement": "mean cycle threshold (CT) of amplification detection", "setting": "Taq polymerase; Actin B template, 0.3 ng", "result": 25.45}, {"measurement": "mean cycle threshold (CT) of amplification detection", "setting": "Taq polymerase; Actin B template, 0.9 ng", "result": 31.85}, {"measurement": "mean cycle threshold (CT) of amplification detection", "setting": "Taq polymerase; Actin B template, 2.7 ng", "result": 40.00}, {"measurement": "mean cycle threshold (CT) of amplification detection", "setting": "Taq polymerase; Actin B template, 8.3 ng", "result": 40.00}, {"measurement": "mean cycle threshold (CT) of amplification detection", "setting": "Taq polymerase; Actin B template, 25 ng", "result": 40.00}, {"measurement": "mean cycle threshold (CT) of amplification detection", "setting": "Taq polymerase; GAPDH template, 0.3 ng", "result": 24.76}, {"measurement": "mean cycle threshold (CT) of amplification detection", "setting": "Taq polymerase; GAPDH template, 0.9 ng", "result": 39.12}, {"measurement": "mean cycle threshold (CT) of amplification detection", "setting": "Taq polymerase; GAPDH template, 2.7 ng", "result": 40.00}, {"measurement": "mean cycle threshold (CT) of amplification detection", "setting": "Taq polymerase; GAPDH template, 8.3 ng", "result": 40.00}, {"measurement": "mean cycle threshold (CT) of amplification detection", "setting": "Taq polymerase; GAPDH template, 25 ng", "result": 40.00}, {"measurement": "18S amplification", "setting": "Taq polymerase", "result": "significantly reduced"}]}
{"substance": "dermatan sulfate [DS]", "values": [{"measurement": "Taq polymerase activity", "setting": "Taq polymerase; [1]", "result": "did not inhibit"}]}
{"substance": "Chondroitin sulfate E [CS-E]", "values": [{"measurement": "Taq polymerase activity", "setting": "Taq polymerase; highest concentration tested (125 ng)", "result": "trace of inhibitory effect"}]}
{"substance": "Chondroitin sulfate type A [CS-A]", "values": [{"measurement": "Taq polymerase activity", "setting": "Taq polymerase; [1]", "result": "did not inhibit"}]}
{"substance": "Heparan sulfate [HS]", "values": [{"measurement": "mean cycle threshold (CT) of amplification detection", "setting": "Taq polymerase; 18S template, 8.3 ng", "result": 13.62}, {"measurement": "mean cycle threshold (CT) of amplification detection", "setting": "Taq polymerase; 18S template, 25 ng", "result": 13.66}, {"measurement": "mean cycle threshold (CT) of amplification detection", "setting": "Taq polymerase; 18S template, 62.5 ng", "result": 13.69}, {"measurement": "mean cycle threshold (CT) of amplification detection", "setting": "Taq polymerase; 18S template, 125 ng", "result": 13.96}, {"measurement": "mean cycle threshold (CT) of amplification detection", "setting": "Taq polymerase; 18S template, 250 ng", "result": 14.36}, {"measurement": "mean cycle threshold (CT) of amplification detection", "setting": "Taq polymerase; Actin B template, 25 ng", "result": 18.36}, {"measurement": "mean cycle threshold (CT) of amplification detection", "setting": "Taq polymerase; GAPDH template, 8.3 ng", "result": 17.68}, {"measurement": "mean cycle threshold (CT) of amplification detection", "setting": "Taq polymerase; GAPDH template, 25 ng", "result": 18.37}, {"measurement": "Taq polymerase amplification of any of the tested templates (18S, Actin B, GAPDH)", "setting": "Taq polymerase; at comparable concentrations", "result": "did not inhibit"}, {"measurement": "Taq polymerase activity", "setting": "Taq polymerase; [1]", "result": "did not inhibit"}]}
{"substance": "oversulfated chondroitin sulfate [OS-CS]", "values": [{"measurement": "amount that completely blocked Taq polymerase mediated 18S cDNA amplification", "setting": "Taq polymerase; 18S template, 25 ng cDNA (FIG. 1C)", "result": 500, "unit": "pg"}, {"measurement": "mean cycle threshold (CT) of amplification detection", "setting": "Taq polymerase; 18S template, 0.08 ng added to cDNA", "result": 13.81}, {"measurement": "mean cycle threshold (CT) of amplification detection", "setting": "Taq polymerase; 18S template, 0.25 ng", "result": 14.38}, {"measurement": "mean cycle threshold (CT) of amplification detection", "setting": "Taq polymerase; 18S template, 0.5 ng", "result": 18.89}, {"measurement": "mean cycle threshold (CT) of amplification detection", "setting": "Taq polymerase; 18S template, 0.75 ng", "result": 31.20}, {"measurement": "mean cycle threshold (CT) of amplification detection", "setting": "Taq polymerase; 18S template, 1 ng", "result": 40.00}, {"measurement": "mean cycle threshold (CT) of amplification detection", "setting": "Taq polymerase; 18S template, 1.25 ng", "result": 40.00}, {"measurement": "mean cycle threshold (CT) of amplification detection", "setting": "Taq polymerase; Actin B template, 0.08 ng", "result": 18.48}, {"measurement": "mean cycle threshold (CT) of amplification detection", "setting": "Taq polymerase; Actin B template, 0.25 ng", "result": 26.89}, {"measurement": "mean cycle threshold (CT) of amplification detection", "setting": "Taq polymerase; Actin B template, 0.5 ng", "result": 38.84}, {"measurement": "mean cycle threshold (CT) of amplification detection", "setting": "Taq polymerase; Actin B template, 0.75 ng", "result": 40.00}, {"measurement": "mean cycle threshold (CT) of amplification detection", "setting": "Taq polymerase; Actin B template, 1 ng", "result": 40.00}, {"measurement": "mean cycle threshold (CT) of amplification detection", "setting": "Taq polymerase; Actin B template, 1.25 ng", "result": 40.00}, {"measurement": "mean cycle threshold (CT) of amplification detection", "setting": "Taq polymerase; GAPDH template, 0.08 ng", "result": 17.22}, {"measurement": "mean cycle threshold (CT) of amplification detection", "setting": "Taq polymerase; GAPDH template, 0.25 ng", "result": 25.13}, {"measurement": "mean cycle threshold (CT) of amplification detection", "setting": "Taq polymerase; GAPDH template, 0.5 ng", "result": 40.00}, {"measurement": "mean cycle threshold (CT) of amplification detection", "setting": "Taq polymerase; GAPDH template, 0.75 ng", "result": 40.00}, {"measurement": "mean cycle threshold (CT) of amplification detection", "setting": "Taq polymerase; GAPDH template, 1 ng", "result": 40.00}, {"measurement": "mean cycle threshold (CT) of amplification detection", "setting": "Taq polymerase; GAPDH template, 1.25 ng", "result": 40.00}, {"measurement": "limit of detection in heparin", "setting": "Taq polymerase; calculated from 500 pg block and heparin potency 6.25 μg/U", "result": "0.16 % (w/w)"}, {"measurement": "gene amplification (polymerase activity) after treatment with heparinase", "setting": "Taq polymerase", "result": "not"}, {"measurement": "18S amplification", "setting": "Taq polymerase", "result": "significantly reduced"}, {"measurement": "reproduction of the clinical syndrome (adverse events)", "setting": "porcine model", "result": "partially reproduce the clinical syndrome"}]}
